The text below walks through data of ChEMBL document CHEMBL1136823, “Lead discovery of alpha,beta-unsaturated sulfones from a combinatorial library as inhibitors of inducible VCAM-1 expression” (Bioorg Med Chem Lett, 2003).

Structures are written as SMILES.

Test [1] is described as follows: In vitro inhibition of inducible vascular cell adhesion molecule-1 (VCAM-1) expression in Human aortic endothelial cells (HAEC); NE denotes no effect. In kind it is functional, cell-based.
Test [2] in a line: In vitro inhibition of inducible vascular cell adhesion molecule-1 (VCAM-1) expression in Human aortic endothelial cells (HAEC). Type of test: functional, cell-based.

For orientation: IC50 means the midpoint of a concentration-inhibition curve. High values mean lower potency, low ones higher potency. For `CCOC(=O)CNCCS(=O)(=O)c1ccccc1`, in test [1], the IC50 result is on record as “Not Active”. The same measure, in the same setting: as for `O=S(=O)(c1ccccc1)c1cccs1`, the entry is “Not Active”.

Turning to `COC(=O)CS(=O)(=O)c1ccccc1`, the IC50 entry in test [1] is “Not Active”. Same read-out and setting: as for `CCCOCCS(=O)(=O)c1cccc(N)c1`, the entry is “Not Active”. Consider `CC(=O)OCCS(=O)(=O)c1cccc(N)c1`, for which the IC50 in test [2] was 10 µM. Regarding `CCS(=O)(=O)c1ccccc1`, the IC50 result in test [1] is “Not Active”. In test [2], `CCCCCCC/C=C/C(=O)Nc1cccc(S(=O)(=O)CCO)c1` returned an IC50 of 23 µM.

In turn, `CCCCCC#CC(=O)OCCS(=O)(=O)c1cccc(N)c1` gave an IC50 in test [2] of 6 µM.

For `Nc1cccc(S(=O)(=O)CCO)c1`, in test [1], the IC50 entry was “Not Active”. As to `C=CC(=O)OCCS(=O)(=O)c1ccccc1`, in test [2], the IC50 came to 7 µM.

Take `CCCCC/C=C/C(=O)OCCS(=O)(=O)c1ccccc1`: in test [2], the IC50 came to 17 µM. Regarding `CCOCCS(=O)(=O)c1ccccc1`, the IC50 result in test [1] is given as “Not Active”. Consider `CC(=O)Nc1cccc(S(=O)(=O)CCOC(C)=O)c1`, for which, in test [2], the IC50 amounted to 4 µM.

For `CCN(CC)CCS(=O)(=O)c1ccccc1`, in test [1], the IC50 entry is listed as “Not Active”. In test [2], `C=CS(C)(=O)=O` returned an IC50 of 14 µM. The compound `CCCCCC#CC(=O)Nc1cccc(S(=O)(=O)CCO)c1` gave an IC50 in test [2] of 20 µM. In the case of `CC(=O)OCCS(=O)(=O)c1ccccc1`, in test [2], the IC50 was determined as 12 µM. As for `C=C[S+]([O-])c1ccccc1` (configuration not stated), in test [1], the IC50 result was “Not Active”.

In the case of `O=S(=O)(CCNCc1ccccc1)c1ccccc1`, in test [1], the IC50 result is reported as “Not Active”. As to `CCCCCCCCOCCS(=O)(=O)c1ccccc1`, the IC50 result in test [1] was “Not Active”.

Compound `O=S(=O)(CCCl)c1ccccc1` came in with an IC50 in test [2] of 2 µM.

Regarding `CCCNc1cccc(S(=O)(=O)CCOC(C)=O)c1`, the IC50 entry in test [1] is listed as “Not Active”. Regarding `O=S(=O)(c1ccccc1)c1ccsc1`, in test [1], the IC50 result is recorded as “Not Active”.

Turning to `CCCCC/C=C/C(=O)OCCS(=O)(=O)c1cccc(N)c1`, the midpoint of inhibition in test [2], the IC50, lay at 17 µM. On the same count and under the same terms, as for `O=S1(=O)C=Cc2ccccc21`, the figure is 4 µM; as for `C=CS(=O)(=O)c1cccc(NCCCCCCCC)c1`, 29 µM.

With `C=CCCS(=O)(=O)c1ccccc1`, the IC50 entry in test [1] was “Not Active”. Take `CCCCCCC/C=C/C(=O)OCCS(=O)(=O)c1cccc(N)c1`: the IC50 in test [2] amounted to 28 µM.

Take `O=C1c2ccccc2C(=O)N1CCS(=O)(=O)c1ccccc1`: the half-inhibitory concentration (IC50) result in test [1] is listed as “Not Active”.

`CCCCCCCCNc1cccc(S(=O)(=O)CCOC(C)=O)c1`: the IC50 result in test [1] is listed as “Not Active”. Same read-out and setting: as for `CC(=O)CCCS(=O)(=O)c1ccccc1`, the entry is “Not Active”. For the compound `C=CS(=O)(=O)c1ccccc1` [(ETHENYLSULFONYL)BENZENE], inhibition in test [2] was half-maximal at 2 µM (IC50).
